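Method: 48-hour compound exposure of cells in 96-well plates, five concentrations, linear interpolation of endpoints. GI50 = concentration required for 50% inhibition of growth. Definition used: TGI = concentration required for complete inhibition of growth.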
Columns and labels:
Assay in all cases: DTP human tumour cell line panel, 48 h
[1] = tested on: A549 NSCLC
[2] = tested on: ACHN renal
[3] = tested on: NCI-H226 lung
[4] = tested on: NCI-H460 lung
[5] = tested on: NCI/ADR-RES ovarian
[6] = tested on: OVCAR-8 ovarian
[7] = tested on: RPMI-8226 leukemia
[8] = tested on: UACC-257 melanoma
[9] = tested on: UACC-62 melanoma
[10] = tested on: MOLT-4 leukemia

| SMILES | TGI [1] | TGI [2] | TGI [3] | TGI [4] | TGI [5] | TGI [6] | TGI [7] | TGI [8] | TGI [9] | TGI [10] | GI50 [1] | GI50 [2] | GI50 [10] | GI50 [3] | GI50 [4] | GI50 [6] | GI50 [7] | GI50 [8] | GI50 [9] | GI50 [5] |
| --- | --- | --- | --- | --- | --- | --- | --- | --- | --- | --- | --- | --- | --- | --- | --- | --- | --- | --- | --- | --- |
| Nc1nc2c(ncn2C2C=CC(CO)C2)c(=O)[nH]1 (configuration not stated) | > 100 µM | > 100 µM | > 100 µM | > 100 µM | > 100 µM | > 100 µM | > 100 µM | > 100 µM | > 100 µM |  |  |  |  |  |  |  |  |  |  |  |
| CC12CCC3(OCCO3)C(OC(=O)c3ccccc3)=C1CCC21OCCO1 (configuration not stated) | > 100 µM | > 100 µM | > 100 µM | > 100 µM |  | > 100 µM | > 100 µM | > 100 µM | > 100 µM | > 100 µM |  |  |  |  |  |  |  |  |  |  |
| CCC[CH2][Sn]1([CH2]CCC)[O]CC(CN(C)Cc2ccccc2)[O]1 (configuration not stated) | 38.6 µM | 23.3 µM | 35.8 µM | 30.3 µM |  | 24.6 µM | 7.79 µM | 20.2 µM | 16.1 µM | 20.8 µM | 19.6 µM | 11.2 µM | 3.64 µM | 17.2 µM | 16.4 µM | 11.9 µM | 2.75 µM | 7.85 µM | 4.31 µM |  |
| CCC(=C/[C@H](C)C/C=C/C(C)=C/[C@@H](C)C(=O)[C@@H](C)[C@H](O)[C@@H](C)CC)/C=C/[C@@H]1OC(=O)C=C[C@H]1C | 1.86 µM | 1.11 µM | 0.0539 µM |  | 2.17 µM | 1.41 µM | < 0.01 µM |  |  |  | < 0.01 µM | < 0.01 µM |  | < 0.01 µM |  | < 0.01 µM | < 0.01 µM | < 0.01 µM | < 0.01 µM | < 0.01 µM |
| Cc1cccc(C)c1NC(=O)C1C(=O)N(c2c(C)cccc2C)C(=O)/C1=N\N (configuration not stated) | > 100 µM | > 100 µM | > 100 µM |  |  | > 100 µM | > 100 µM | > 100 µM | > 100 µM | > 100 µM |  |  |  |  |  |  |  |  |  |  |
| CN1C(=O)C2C3C=C4c5ccccc5N(c5ccccc5)C4(C2C1=O)[C@H]1C(=O)N(C)C(=O)[C@@H]31 (some centres not stated) | > 100 µM | > 100 µM | > 100 µM | > 100 µM |  | > 100 µM | > 100 µM | > 100 µM | > 100 µM | > 100 µM |  |  |  |  |  |  |  |  |  |  |
| Oc1ccc2ccccc2c1N=Nc1ccsc1 | > 100 µM | > 100 µM | > 100 µM | > 100 µM |  | > 100 µM | > 100 µM | > 100 µM | > 100 µM | > 100 µM |  |  |  |  |  |  |  |  |  |  |
| CO/N=C(\C)c1ccc(Nc2cc(-c3ccccc3)nc3ccc(OC)cc23)cc1 | 70.2 µM | 12.5 µM | 5.63 µM | > 100 µM | 11.2 µM |  | 9.64 µM | > 100 µM | 4.41 µM | 25.2 µM | 4.28 µM | 3.27 µM | 3.38 µM | 2.25 µM | 6.69 µM |  | 2.79 µM | 4.64 µM | 1.97 µM | 2.61 µM |
| C[C@]12CC/C(=N\O)C=C1CC[C@@H]1C2CC[C@@]2(C)C1CC[C@@H]2OC1CCCCO1 (some centres not stated) | 53 µM | 30.3 µM |  | 45.7 µM |  | > 100 µM | 37.7 µM | 34.6 µM | > 10 µM | 29.9 µM |  |  |  |  |  |  |  |  |  |  |
